The values below come from patent US9828350B2, “5,6-dihydro-2H-[1,4]oxazin-3-yl-amine derivatives useful as inhibitors of beta-secretase (BACE)” (Janssen Pharmaceutica NV, priority 2010, dated 2017).

SMILES strings stand for the structures. Where a name gives a salt, the structure may show the parent alone.

One data set deals with Abeta 1-42. As to the kind of experiment: Cellular αLisa assay in SKNBE2 cells, Abeta 1-42. It is filed as cell-based, human. The note with it: incubated for 18 hours; for IC50: Homo sapiens, SKNBE2, 18 h, read-out: Cellular αLisa assay in SKNBE2 cells Abeta 42 pIC50 (converted). In a few lines: (§1)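 Human neuroblastoma SKNBE2 cells expressing wild-type hAPP695 were incubated with compound for 18 hours. Secreted Abeta total and Abeta 1-42 in medium were quantified by sandwich αLisa: biotinylated AbN/25 on streptavidin donor beads with Ab4G8 (total) or cAb42/26 (1-42) acceptor beads. Light emission read after 1 hour (ex 650 nm, em 615 nm).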

In another data set the test system is Abeta total. As to the kind of experiment: Cellular αLisa assay in SKNBE2 cells, Abeta total. It is filed as cell-based, human. The note with it: incubated for 18 hours; for IC50: Homo sapiens, SKNBE2, 18 h, read-out: Cellular αLisa assay in SKNBE2 cells Abetatotal pIC50 (converted). In outline:
as §1

Data set [1] has as its target recombinant BACE1 protein (Homo sapiens, UniProt P56817). As to the kind of experiment: Biochemical FRET based assay. The note with it: recombinant BACE1 1 μg/ml, 120 minutes at room temperature, pH 5.0; for IC50: read-out: Biochemical FRET based assay pIC50 (converted). In outline: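 Recombinant BACE1 (1 μg/ml final) was incubated 120 minutes at room temperature with […] Mca/Dnp-labelled 13-mer APP Swedish-mutant peptide in 40 mM citrate pH 5.0, 0.04% PEG, 4% DMSO, with or without compound. Cleavage was measured as fluorescence (ex 320/em 405 nm), given as RFU difference between T120 and T0.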

Sequence of recombinant BACE1 protein (P56817 46-501): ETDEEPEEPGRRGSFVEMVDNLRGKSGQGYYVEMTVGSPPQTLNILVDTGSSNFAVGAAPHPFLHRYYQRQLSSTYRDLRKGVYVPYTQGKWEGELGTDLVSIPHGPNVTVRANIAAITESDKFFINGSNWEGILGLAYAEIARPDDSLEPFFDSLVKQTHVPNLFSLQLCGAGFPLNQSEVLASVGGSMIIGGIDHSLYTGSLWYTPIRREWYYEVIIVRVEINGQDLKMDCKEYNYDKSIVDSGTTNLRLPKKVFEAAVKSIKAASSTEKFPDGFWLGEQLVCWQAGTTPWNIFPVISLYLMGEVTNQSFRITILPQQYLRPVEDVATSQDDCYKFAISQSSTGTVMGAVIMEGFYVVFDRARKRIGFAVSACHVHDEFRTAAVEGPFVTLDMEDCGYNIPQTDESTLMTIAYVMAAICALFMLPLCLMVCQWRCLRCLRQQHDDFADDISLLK

For orientation: melting point means the temperature of the solid-liquid transition. For `C[C@@]1(c2cccc(-c3cncnc3)c2)COC2(CC2)C(N)=N1` (as salt: fumarate) [Compound 74], the melting point was determined as 193.3 °C.
Same read-out and setting: the value for `CC1(c2cccc(-c3ccccc3)c2)COCC(N)=N1` (racemic) (as salt: TFA) [Compound 1, rac-5-biphenyl-3-yl-5-methyl-5,6-dihydro-2H-1,4-oxazin-3-amine trifluoroacetate salt] was 217.2 °C.
In turn, `CC1(c2cccc(-c3cc(Cl)cc(Cl)c3)c2)COCC(N)=N1` (racemic) [Compound 2, rac-5-(3′,5′-dichlorobiphenyl-3-yl)-5-methyl-5,6-dihydro-2H-1,4-oxazin-3-amine] showed a melting point of 197 °C. The IC50 in the data set on Abeta 1-42 was 724 nM. Moreover, the IC50 in the data set on Abeta total is 617 nM. For the same compound, the IC50 in data set [1] was 1910 nM.
For the compound `CC1(c2cccc(NC(=O)c3ncccc3F)c2)COCC(N)=N1` (racemic) [Compound 6, rac-N-[3-(5-amino-3-methyl-3,6-dihydro-2H-1,4-oxazin-3-yl)phenyl]-3-fluoropyridine-2-carboxamide], the melting point worked out at 155.6 °C. Moreover, in the data set with Abeta 1-42, the IC50 is 513 nM. Also, the IC50 in the data set on Abeta total was 457 nM. In addition, the IC50 in data set [1] is 5130 nM.
`COc1cncc(-c2cccc(C3(C(F)(F)F)COCC(N)=N3)c2)c1` (racemic) [Compound 152, rac-5-[3-(5-methoxypyridin-3-yl)phenyl]-5-(trifluoromethyl)-5,6-dihydro-2H-1,4-oxazin-3-amine] showed a melting point of 202.5 °C. The IC50 in the data set on Abeta 1-42 was 3160 nM. In addition, the IC50 in the data set with Abeta total is 3160 nM. In addition, the IC50 in data set [1] is 3890 nM.
Consider `NC1=NC(c2cccc(NC(=O)c3ccc(Cl)cn3)c2)(C2CC2)COC1` (racemic) [Compound 153, rac-N-[3-(5-Amino-3-cyclopropyl-3,6-dihydro-2H-1,4-oxazin-3-yl)phenyl]-5-chloropyridine-2-carboxamide], for which the melting point stood at 161.5 °C. Moreover, the IC50 in the data set on Abeta 1-42 is 11.5 nM. In the data set with Abeta total, the IC50 is 13.2 nM. Further, the IC50 in data set [1] is 89.1 nM.
Compound `CC1(c2cc(-c3cncnc3)ccc2F)N=C(N)COC1F` (single isomer, unassigned) [Compound 75] returned a melting point of 227.7 °C. Further, the “Cellular αLisa assay in SKNBE2 cells Abeta 42 pIC50” value in the data set with Abeta 1-42 came to 5.46. For the same compound, in the data set on Abeta total, the “Cellular αLisa assay in SKNBE2 cells Abetatotal pIC50” value is 5.46. Besides, the IC50 in data set [1] is 9770 nM.
`C[C@@]1(c2cccc(NC(=O)c3ccc(Cl)cn3)c2)N=C(N)CO[C@H]1F` (single isomer, unassigned) [Compound 85, (S*,S*)—N-[3-(5-amino-2-fluoro-3-methyl-3,6-dihydro-2H-1,4-oxazin-3-yl)phenyl]-5-chloropyridine-2-carboxamide] yielded a melting point of 160.8 °C. Further, the IC50 in the data set with Abeta 1-42 was 871 nM. In the data set with Abeta total, the IC50 was 851 nM. The IC50 in data set [1] was 6460 nM.
`CC1(c2cccc(-c3cncnc3)c2)N=C(N)COC1F` (single isomer, unassigned) [Compound 94] had a melting point of 115.4 °C. The “Cellular αLisa assay in SKNBE2 cells Abeta 42 pIC50” value with Abeta 1-42 came to 5.43. In addition, the “Cellular αLisa assay in SKNBE2 cells Abetatotal pIC50” value with Abeta total amounted to 5.34. Besides, the IC50 in data set [1] is > 30200 nM.
Take `CC1(c2cccc(NC(=O)c3ccc(Cl)cn3)c2)N=C(N)COC1(F)C(F)(F)F` (single isomer, unassigned) [Compound 112]: the melting point was 207.3 °C. In addition, in the data set on Abeta 1-42, the “Cellular αLisa assay in SKNBE2 cells Abeta 42 pIC50” value is given as 5.68. The “Cellular αLisa assay in SKNBE2 cells Abetatotal pIC50” value in the data set on Abeta total is given as 5.71.
In turn, `CC1(c2cc(NC(=O)c3ncc(Cl)cc3Cl)ccc2F)N=C(N)COC1F` (single isomer, unassigned) [Compound 128] had a melting point of 93.3 °C. The “Cellular αLisa assay in SKNBE2 cells Abeta 42 pIC50” value in the data set with Abeta 1-42 is reported as 6.0. The “Cellular αLisa assay in SKNBE2 cells Abetatotal pIC50” value in the data set with Abeta total was found to be 6.02. For the same compound, in data set [1], the IC50 is 5750 nM.
On to `CC1(c2cc(NC(=O)c3ncc(Cl)cc3F)ccc2F)N=C(N)COC1F` (single isomer, unassigned) [Compound 130], for which the melting point came to 116.4 °C. In addition, the “Cellular αLisa assay in SKNBE2 cells Abeta 42 pIC50” value with Abeta 1-42 came out at 6.47. Besides, in the data set on Abeta total, the “Cellular αLisa assay in SKNBE2 cells Abetatotal pIC50” value was found to be 6.48. In addition, the IC50 in data set [1] was 1910 nM.
In turn, `C[C@]1(c2cc(-c3cncnc3)c(F)cc2F)N=C(N)CO[C@@H]1F` (single isomer, unassigned) [Compound 148, (R*,R*)-5-(2,4-difluoro-5-pyrimidin-5-ylphenyl)-6-fluoro-5-methyl-5,6-dihydro-2H-1,4-oxazin-3-amine] gave a melting point of 186.2 °C. In addition, in the data set with Abeta 1-42, the IC50 was > 10000 nM. In addition, in the data set with Abeta total, the IC50 was > 10000 nM. Also, the IC50 in data set [1] was > 30200 nM.
In the case of `CC1(c2cccc(NC(=O)c3ncc(Cl)cc3F)c2)N=C(N)COC1(F)C(F)(F)F` (single isomer, unassigned) [Compound 172], the melting point was found to be 180.17 °C. In the data set on Abeta 1-42, the “Cellular αLisa assay in SKNBE2 cells Abeta 42 pIC50” value stood at 6.74. Besides, the “Cellular αLisa assay in SKNBE2 cells Abetatotal pIC50” value with Abeta total came out at 6.81. The IC50 in data set [1] was 513 nM.
As for `CC1(c2cccc(NC(=O)c3ncc(Cl)cc3F)c2)N=C(N)COC1(F)C(F)(F)F` (single isomer, unassigned) [Compound 174], the melting point is 179.18 °C. In addition, the “Cellular αLisa assay in SKNBE2 cells Abeta 42 pIC50” value with Abeta 1-42 is listed as <5. Also, the “Cellular αLisa assay in SKNBE2 cells Abetatotal pIC50” value in the data set with Abeta total is recorded as <5. Moreover, in data set [1], the IC50 is > 30200 nM.
Consider `CC1(c2cccc(NC(=O)c3ccncn3)c2)N=C(N)COC1(F)C(F)(F)F` (single isomer, unassigned) [Compound 187], for which the melting point amounted to 189.64 °C. Moreover, in the data set with Abeta 1-42, the “Cellular αLisa assay in SKNBE2 cells Abeta 42 pIC50” value is 5.92. In addition, in the data set with Abeta total, the “Cellular αLisa assay in SKNBE2 cells Abetatotal pIC50” value is given as 5.95. Further, the IC50 in data set [1] is 10200 nM.
The matching figures for `CC1(c2cccc(NC(=O)c3ccncn3)c2)N=C(N)COC1(F)C(F)(F)F` (single isomer, unassigned) [Compound 189]: 189.29 °C, <5, <5 and > 30200 nM.
`CC1(c2cc(-c3cncnc3)c(F)cc2F)COC2(CC2)C(N)=N1` (centres unmarked) [Compound 72] came in with a melting point of 213.1 °C. Moreover, the IC50 in the data set with Abeta 1-42 is 631 nM. Also, the IC50 with Abeta total is 646 nM. For the same compound, in data set [1], the IC50 was 2630 nM.
`CC1(c2cc(-c3cncnc3)c(F)cc2F)N=C(N)COC1F` (centres unmarked) [Compound 84] registered a melting point of 195.3 °C. Further, the IC50 in the data set on Abeta 1-42 was 3890 nM. For the same compound, the IC50 in the data set on Abeta total was 4470 nM. For the same compound, the IC50 in data set [1] was 22900 nM.
The compound `COc1cncc(-c2cccc(C3(C)N=C(N)COC3F)c2)c1` (centres unmarked) [Compound 87] had a melting point of 139.23 °C. Besides, the “Cellular αLisa assay in SKNBE2 cells Abeta 42 pIC50” value with Abeta 1-42 was 6.46. The “Cellular αLisa assay in SKNBE2 cells Abetatotal pIC50” value in the data set on Abeta total was determined as 6.47. Besides, in data set [1], the “Biochemical FRET based assay pIC50” value turned out to be 5.81.
With `CC1(c2cccc(-c3cncnc3)c2)N=C(N)COC1F` (centres unmarked) [Compound 98], the melting point is 189.3 °C. In addition, the “Cellular αLisa assay in SKNBE2 cells Abeta 42 pIC50” value in the data set with Abeta 1-42 came out at 6.19. The “Cellular αLisa assay in SKNBE2 cells Abetatotal pIC50” value with Abeta total is on record as 6.14. The IC50 in data set [1] was 2820 nM.
The compound `CC1(c2cccc(-c3cncnc3)c2)N=C(N)COC1F` (centres unmarked) [Compound 99] came in with a melting point of 204.3 °C. In the data set with Abeta 1-42, the “Cellular αLisa assay in SKNBE2 cells Abeta 42 pIC50” value amounted to 5.87. The “Cellular αLisa assay in SKNBE2 cells Abetatotal pIC50” value in the data set on Abeta total stood at 5.73. Further, the IC50 in data set [1] was 20900 nM.
`COc1cncc(-c2ccc(F)c(C3(C)N=C(N)COC3C(F)(F)F)c2)c1` (centres unmarked) [Compound 105]: the melting point came out at 196.9 °C. The IC50 in the data set on Abeta 1-42 was 200 nM. Moreover, the IC50 in the data set on Abeta total is 224 nM. Moreover, the IC50 in data set [1] is 1550 nM.
The compound `C[C@]1(c2cc(-c3cncnc3)c(F)cc2F)COC2(CC2)C(N)=N1` [Compound 149] gave a melting point of 187.4 °C. Besides, the IC50 in the data set on Abeta 1-42 was 8710 nM. For the same compound, the IC50 in the data set with Abeta total is 8910 nM. Also, the IC50 in data set [1] was > 30200 nM.
For the compound `Cc1cc(Cl)cnc1C(=O)Nc1ccc(F)c([C@@]2(C3CC3)N=C(N)CO[C@@H]2F)c1` [Compound 315], the IC50 was 170 nM in the data set on Abeta 1-42, 145 nM in the data set with Abeta total and 81.3 nM in data set [1].
Consider `C[C@]1(c2cc(-c3cncc(F)c3)c(F)cc2F)N=C(N)CO[C@@H]1C(F)(F)F` [Compound 316], for which the IC50 is 724 nM with Abeta 1-42, 631 nM with Abeta total and 1150 nM in data set [1].
In the case of `C[C@]1(c2cc(NC(=O)c3cnc(OCC(F)(F)F)cn3)ccc2F)N=C(N)CO[C@]1(F)C(F)(F)F` [Compound 318], the IC50 is 851 nM in the data set on Abeta 1-42, 724 nM in the data set with Abeta total and 355 nM in data set [1].
Turning to `C[C@]1(c2cc(NC(=O)c3cnc(OCC(F)(F)F)cn3)ccc2F)N=C(N)CO[C@@]1(F)C(F)(F)F` [Compound 319], the IC50 in the data set with Abeta 1-42 is 74.1 nM; in the data set on Abeta total, 69.2 nM; in data set [1], 43.7 nM.
The matching figures for `C[C@]1(c2cc(-c3cncc(C#N)c3)c(F)cc2F)N=C(N)CO[C@H]1C(F)(F)F` [Compound 351]: 550 nM, 468 nM and 2040 nM.
